What all share (assay type): cell-based
A short description of data set [1]: Test on inhibition of Vero cell growth (XTT). The note with it: African green monkey, Vero cells, 3 days culture, read-out: CC50 (concentration inhibiting 50% of cell growth). As for the experimental part:
Each test compound was dissolved in dimethyl sulfoxide, adjusted to each concentration using E'MEM, and then dispensed at 0.1 mL/well to 96-well microplates. The Vero cell suspension was prepared at 3×10^4 cells/mL using E'MEM supplemented with 20% FBS, inoculated thereto at 0.1 mL/well, and cultured at 37° C. for 3 days under 5% CO2. At the completion of the culture, PBS supplemented with 1 mg/mL 2,3-bis-(2-methoxy-4-nitro-5-sulfophenyl)-5-((phenylamino)carbonyl)-2H-tetrazolium inner salt monosodium salt (XTT) and 25 μM phenazine methosulfate (PMS) was prepared and added thereto at 50 μL/well. Approximately 2 hours later, the absorbance at 450 nm was measured using a microplate reader.

Data set [2] deals with Pseudomonas aeruginosa ATCC27853 strain. Description: Antibacterial activity, MIC by broth microdilution (CLSI). As for the experimental part: (§1) The minimum inhibitory concentration (MIC) was measured according to the CLSI (Clinical and Laboratory Standards Institute) standard method using a broth microdilution method given below. The bacteria used were a Pseudomonas aeruginosa ATCC27853 strain, an Escherichia coli ATCC25922 strain and a Klebsiella pneumoniae ATCC13883 strain. Test bacterial cells of each strain cultured overnight in a Mueller-Hinton agar medium were scraped off and suspended at the McFarland 0.5 standard, and this suspension was diluted 10-fold to prepare an inoculum solution. The inoculum solution (0.005 mL) was inoculated to a cation-adjusted Mueller-Hinton medium containing each test compound and cultured at 35° C. for 16 to 20 hours. The minimum drug concentration at which bacterial growth was not visible to the naked eye was defined as MIC.
A general note: Broth dilution looks for growth in wells or tubes with falling amounts of substance.

In data set [3] the test system is Klebsiella pneumoniae ATCC13883 strain. The description is as above. As for the experimental part: as §1
Data set [4] has as its system Escherichia coli ATCC25922 strain. Described as above. The method, then: as §1

What is called MIC is the lowest concentration that inhibits growth of the organism. A high value points to weaker potency.

In brackets after ≈: the same amount, converted by molar mass. Where only a bound is given, the exact number is not on record here.

Turning to `CNC(=O)[C@@](C)(C(=O)NO)N(C)C(=O)c1ccc(C#Cc2ccc(COCC(O)CO)cc2)cc1` (stereo partly drawn) [Example 2, (2S)-2-((4-((4-((2,3-dihydroxypropoxy)methyl)phenyl)ethynyl)benzoyl)(methyl)amino)-N-hydroxy-N′,2-dimethylmalonamide], the CC50 at 3 days in data set [1] was no less than 100 µg/mL. The compound further showed an MIC in data set [2] of 1 µg/mL (≈ 2.07 µM).
Take `CNC(=O)[C@@](C)(C(=O)NO)N(C)C(=O)c1ccc(C#Cc2ccc(COCCOC(C)=O)cc2)cc1` [Example 4, 2-((4-((4-((((1S)-2-(hydroxyamino)-1-methyl-1-((methylamino)carbonyl)-2-oxoethyl)(methyl)amino)carbonyl)phenyl)ethynyl)benzyl)oxy)ethyl acetate]: in data set [1], the CC50 at 3 days is no less than 100 µg/mL. In addition, the values for the MIC in data set [3] and in data set [4] were 0.5 µg/mL and 0.25 µg/mL, respectively.
Consider `CNC(=O)[C@@](C)(C(=O)NO)N(C)C(=O)c1ccc(C#Cc2ccc(COC(CO)CO)cc2)cc1` [Example 5, (2S)—N-hydroxy-2-((4-((4-((2-hydroxy-1-(hydroxymethyl)ethoxy)methyl)phenyl)ethynyl)benzoyl)(methyl)amino)-N′,2-dimethylmalonamide], for which the CC50 at 3 days in data set [1] was no less than 100 µg/mL.
On to `CNC(=O)[C@@](C)(C(=O)NO)N(C)C(=O)c1ccc(C#Cc2ccc(C(CO)CO)cc2)cc1` [Example 6, (2S)—N-hydroxy-2-((4-((4-(2-hydroxy-1-(hydroxymethyl)ethyl)phenyl)ethynyl)benzoyl)(methyl)amino)-N′,2-dimethyl-malonamide], for which, in data set [1], the CC50 at 3 days was no less than 100 µg/mL.
Take `CNC(=O)[C@@](C)(C(=O)NO)N(C)C(=O)c1ccc(C#Cc2ccc(COCC(C)(C)O)cc2)cc1` [Example 7, (2S)—N-hydroxy-2-((4-((4-((2-hydroxy-2-methylpropoxy)methyl)phenyl)ethynyl)benzoyl)(methyl)amino)-N′,2-dimethyl-malonamide]: in data set [1], the CC50 at 3 days is no less than 100 µg/mL. Besides, the MIC is 1 µg/mL (≈ 2.08 µM) in data set [2], 0.5 µg/mL (≈ 1.04 µM) in data set [3] and 0.25 µg/mL (≈ 0.519 µM) in data set [4].
Consider `CNC(=O)[C@@](C)(C(=O)NO)N(C)C(=O)c1ccc(C#Cc2ccc(CO[C@@H](C)CO)cc2)cc1` [Example 8, (2S)—N-hydroxy-2-((4-((4-(((1S)-2-hydroxy-1-methylethoxy)methyl)phenyl)ethynyl)benzoyl)(methyl)amino)-N′,2-dimethylmalonamide], for which the CC50 at 3 days in data set [1] was no less than 100 µg/mL. Besides, the MIC in data set [2] worked out at 1 µg/mL (≈ 2.14 µM); in data set [3], 1 µg/mL (≈ 2.14 µM); in data set [4], 0.25 µg/mL (≈ 0.535 µM).
On to `CNC(=O)[C@@](C)(C(=O)NO)N(C)C(=O)c1ccc(C#Cc2ccc(C(CO)OC)cc2)cc1` (stereo partly drawn) [Example 9, (2S)—N-hydroxy-2-((4-((4-(2-hydroxy-1-methoxyethyl)phenyl)ethynyl)benzoyl)(methyl)amino)-N′,2-dimethyl-malonamide], for which the CC50 at 3 days in data set [1] is no less than 100 µg/mL. Further, the MIC in data set [4] was determined as 0.5 µg/mL (≈ 1.1 µM).
For `CNC(=O)[C@@](C)(C(=O)NO)N(C)C(=O)c1ccc(C#Cc2ccc(CO[C@H](C)CO)cc2)cc1` [Example 10, (2S)—N-hydroxy-2-((4-((4-(((1R)-2-hydroxy-1-methylethoxy)methyl)phenyl)ethynyl)benzoyl)(methyl)amino)-N′,2-dimethyl-malonamide], the CC50 at 3 days in data set [1] was no less than 100 µg/mL. Moreover, the MIC in data set [2] came out at 1 µg/mL (≈ 2.14 µM); in data set [3], 0.5 µg/mL (≈ 1.07 µM); in data set [4], 0.25 µg/mL (≈ 0.535 µM).
For `CNC(=O)[C@@](C)(C(=O)NO)N(C)C(=O)c1ccc(C#Cc2ccc(COC3COC3)cc2)cc1` [Example 11, (2S)—N-hydroxy-N′,2-dimethyl-2-(methyl(4-((4-((oxetan-3-yloxy)methyl)phenyl)ethynyl)benzoyl)amino)malonamide], the MIC in data set [3] turned out to be 0.5 µg/mL (≈ 1.07 µM); in data set [4], 0.0625 µg/mL (≈ 0.134 µM).
`CNC(=O)[C@@](C)(C(=O)NO)N(C)C(=O)c1ccc(C#Cc2ccc(/C=C/COC)cc2)cc1` [Example 12, (2S)—N-hydroxy-2-((4-((4-((1E)-3-methoxy-1-propen-1-yl)phenyl)ethynyl)benzoyl)(methyl)amino)-N′,2-dimethyl-malonamide]: the MIC in data set [2] was determined as 1 µg/mL (≈ 2.22 µM); in data set [3] it was 0.125 µg/mL (≈ 0.278 µM); in data set [4], 0.0625 µg/mL (≈ 0.139 µM).
`CNC(=O)[C@@](C)(C(=O)NO)N(C)C(=O)c1ccc(C#Cc2ccc(CC(O)CO)cc2)cc1` (stereo partly drawn) [Example 15, (2S)-2-((4-((4-(2,3-dihydroxypropyl)phenyl)ethynyl)benzoyl)(methyl)amino)-N-hydroxy-N′,2-dimethylmalonamide] yielded an MIC in data set [2] of 1 µg/mL (≈ 2.21 µM).
The compound `CNC(=O)[C@@](C)(C(=O)NO)N(C)C(=O)c1ccc(C#Cc2ccc(CC(CO)CO)cc2)cc1` [Example 18, (2S)—N-hydroxy-2-((4-((4-(3-hydroxy-2-(hydroxymethyl)propyl)phenyl)ethynyl)benzoyl)(methyl)amino)-N′,2-dimethyl-malonamide] gave an MIC in data set [2] of 1 µg/mL (≈ 2.14 µM).
The compound `CNC(=O)[C@@](C)(C(=O)NO)N(C)C(=O)c1ccc(C#Cc2ccc(C(C)OCCO)cc2)cc1` (stereo partly drawn) [Example 21, (2S)—N-hydroxy-2-((4-((4-(1-(2-hydroxyethoxy)ethyl)phenyl)ethynyl)benzoyl)(methyl)amino)-N′,2-dimethyl-malonamide] yielded an MIC in data set [4] of 0.5 µg/mL (≈ 1.07 µM).
Turning to `CNC(=O)[C@@](C)(C(=O)NO)N(C)C(=O)c1ccc(C#Cc2ccc(C(O)COCCO)cc2)cc1` (stereo partly drawn) [Example 22, (2S)—N-hydroxy-2-((4-((4-(1-hydroxy-2-(2-hydroxyethoxy)ethyl)phenyl)ethynyl)benzoyl)(methyl)amino)-N′,2-dimethyl-malonamide], in data set [1], the CC50 at 3 days is no less than 100 µg/mL. Besides, 1 µg/mL (≈ 2.07 µM) was the least that counted as inhibitory in data set [2] (MIC).
In turn, `CNC(=O)[C@@](C)(C(=O)NO)N(C)C(=O)c1ccc(C#Cc2ccc([C@@H](O)CO)c(F)c2)cc1` [Example 26, (2S)-2-((4-((4-(1,2-dihydroxyethyl)-3-fluorophenyl)ethynyl)benzoyl)(methyl)amino)-N-hydroxy-N′,2-dimethyl-malonamide] registered an MIC in data set [2] of 1 µg/mL (≈ 2.19 µM).
Turning to `CNC(=O)[C@@](C)(C(=O)NO)N(C)C(=O)c1ccc(C#Cc2ccc(C(O)COCCO)c(F)c2)cc1` (stereo partly drawn) [Example 27, (2S)-2-((4-((3-fluoro-4-(1-hydroxy-2-(2-hydroxyethoxy)ethyl)phenyl)ethynyl)benzoyl)(methyl)amino)-N-hydroxy-N′,2-dimethylmalonamide], the MIC in data set [2] stood at 1 µg/mL (≈ 1.99 µM).
Turning to `CNC(=O)[C@@](C)(C(=O)NO)N(C)C(=O)c1ccc(C#Cc2ccc([C@H](O)COCCCO)cc2)cc1` [Example 28, (2S)—N-hydroxy-2-((4-((4-((1S)-1-hydroxy-2-(3-hydroxypropoxy)ethyl)phenyl)ethynyl)benzoyl)(methyl)amino)-N′,2-dimethyl-malonamide], in data set [1], the CC50 at 3 days is no less than 100 µg/mL. Besides, the minimum inhibitory concentration (MIC) in data set [4] came to 0.5 µg/mL (≈ 1 µM).
Take `CCOC[C@@H](O)c1ccc(C#Cc2ccc(C(=O)N(C)[C@@](C)(C(=O)NC)C(=O)NO)cc2)cc1` [Example 29, (2S)-2-((4-((4-((1S)-2-ethoxy-1-hydroxyethyl)phenyl)ethynyl)benzoyl)(methyl)amino)-N-hydroxy-N′,2-dimethyl-malonamide]: in data set [1], the CC50 at 3 days was no less than 100 µg/mL. Also, the minimum inhibitory concentration (MIC) is 0.5 µg/mL (≈ 1.07 µM) in data set [3] and 0.125 µg/mL (≈ 0.267 µM) in data set [4].
Consider `CNC(=O)[C@@](C)(C(=O)NO)N(C)C(=O)c1ccc(C#Cc2ccc([C@@H](O)COC)cc2)cc1` [Example 31, (2S)—N-hydroxy-2-((4-((4-((1R)-1-hydroxy-2-methoxyethyl)phenyl)ethynyl)benzoyl)(methyl)amino)-N′,2-dimethyl-malonamide], for which, in data set [1], the CC50 at 3 days is no less than 100 µg/mL. Moreover, the results for the MIC in data set [3] and in data set [4] were 1 µg/mL (≈ 2.21 µM) and 0.5 µg/mL (≈ 1.1 µM), respectively.
With `CNC(=O)[C@@](C)(C(=O)NO)N(C)C(=O)c1ccc(C#Cc2ccc([C@@H](O)CCO)cc2)cc1` [Example 32, (2S)-2-((4-((4-((1S)-1,3-dihydroxypropyl)phenyl)ethynyl)benzoyl)(methyl)amino)-N-hydroxy-N′,2-dimethyl-malonamide], the MIC in data set [2] stood at 1 µg/mL (≈ 2.21 µM); in data set [4], 0.5 µg/mL (≈ 1.1 µM).
As to `CNC(=O)[C@@](C)(C(=O)NO)N(C)C(=O)c1ccc(C#Cc2ccc([C@H](O)[C@@H](C)O)cc2)cc1` [Example 34, (2S)-2-((4-((4-((1S,2R)-1,2-dihydroxypropyl)phenyl)ethynyl)benzoyl)(methyl)amino)-N-hydroxy-N′,2-dimethyl-malonamide], the CC50 at 3 days in data set [1] was no less than 100 µg/mL. For the same compound, the minimum inhibitory concentration (MIC) is 1 µg/mL (≈ 2.21 µM) in data set [2] and 0.5 µg/mL (≈ 1.1 µM) in data set [4].
Turning to `CNC(=O)[C@@](C)(C(=O)NO)N(C)C(=O)c1ccc(C#Cc2ccc([C@@H](C)O)cc2)cc1` [Example 37, (2S)—N-hydroxy-2-((4-((4-((1R)-1-hydroxyethyl)phenyl)ethynyl)benzoyl)(methyl)amino)-N′,2-dimethyl-malonamide], the MIC in data set [2] amounted to 1 µg/mL (≈ 2.36 µM); in data set [3] it was 0.5 µg/mL (≈ 1.18 µM); in data set [4], 0.125 µg/mL (≈ 0.295 µM).
In data set [4], `CNC(=O)[C@@](C)(C(=O)NO)N(C)C(=O)c1ccc(C#Cc2ccc([C@H](C)O)cc2)cc1` [Example 38, (2S)—N-hydroxy-2-((4-((4-((1S)-1-hydroxyethyl)phenyl)ethynyl)benzoyl)(methyl)amino)-N′,2-dimethyl-malonamide] registered an MIC of 0.25 µg/mL (≈ 0.59 µM).
